Test results: patent US8476484B2, “Transgenic clawed frog embryos and use thereof as detectors of endocrine disrupters in the environment” (Centre National de la Recherche Scientifique (CNRS), priority 2002, dated 2013)
Entries after “also recorded” stand apart in the source; their conditions may differ.

Assays:
[1] = system: TRE-tk-luciferase construct (rat malic enzyme TRE); test: Somatic transgenesis in xenopus dorsal muscle with TRE-tk-luciferase; assay type: in vivo; conditions: T3 10^-8 M vs -T3; measured four days after treatment; FIG. 5
Method: The somatic transgenesis is carried out either: • by injection of 1 μl of naked DNA into the dorsal muscle of the embryo. The DNA concentration is 100 ng/μl to 5 μg/μl in 0.07 M NaCL; • by microinjection of 1 μl of DNA/PEI (polyethyleneimine) into the brain of the embryo. The DNA concentration is between 50 and 500 ng/μl in 5% glucose. 3.1. […] 3.2.

[2] = system: DR4(X3)-GFP construct (consensus TRE); conditions: thyroid hormone 10^-8 M in the water of the aquarium; FIG. 8
Method: The germinal transgenesis is carried out according to the protocol described by Kroll and Amaya (1996).

[3] = system: TRE-tk-luciferase construct (rat malic enzyme TRE); test: Somatic transgenesis with TRE-tk-luciferase in dorsal muscle of pretreated xenopus tadpoles; assay type: in vivo; conditions: tadpoles pretreated with perchlorate and T3 10^-11 M; then T3 10^-8 M for 48 hours vs control; FIG. 6
Method: FIG. 6: Somatic transgenesis by injection, into the dorsal muscle of pretreated xenopus animals, of the construct TRE-tk-luciferase. The animals are pretreated for 48 hours with 10^−11 M of T3 thyroid hormone, and then rinsed for 24 hours. The animals are then transfected by injection into the dorsal muscle of 1 mg/animal of the construct TRE-tk-luciferase. The animals are then treated for 48 hours (10^−8 M) or in the absence (−T3) of thyroid hormone. Two days after treatment, the luciferase expression is measured. […] According to an alternative method, the transgenic animals according to the invention are pretreated with perchlorate for one month at 1 g/l, and are then sensitized with the test compound, such as the T3 hormone (10^−11 M), for 18 to 48 hours without food. The animals are then washed in a medium containing no T3 and are fed for 36 hours. The construct (for example TRE-tk-luciferase) is injected into the dorsal muscle of the xenopus embryo (1 mg/animal). Out of the 24 tadpoles that were pretreated and then subjected to somatic transgenesis, twelve tadpoles are treated for 48 hours with T3 thyroid hormone at 10^−8 M; the other twelve tadpoles that remain serve as a control.

[4] = system: TRE-tk-EGFP construct (rat malic enzyme TRE); test: Somatic transgenesis in xenopus dorsal muscle with TRE-tk-EGFP; assay type: in vivo; conditions: T3 10 nM vs -T3; detected four days later; FIG. 7
Method: FIG. 7: Somatic transgenesis by injection, into the dorsal muscle of xenopus, of the construct TRE-tk-EGFP. The animals are transfected by injection into the dorsal muscle of […] of the construct TRE-tk-EGFP. The animals are then treated for 48 hours in the presence (+T3 10 nM) or in the absence (−T3) of T3 thyroid hormone. […] The somatic transgenesis is carried out either: • by injection of 1 μl of naked DNA into the dorsal muscle of the embryo. The DNA concentration is 100 ng/μl to 5 μg/μl in 0.07 M NaCL; • by microinjection of 1 μl of DNA/PEI (polyethyleneimine) into the brain of the embryo. The DNA concentration is between 50 and 500 ng/μl in 5% glucose. 3.3. The TRE-tk-EGFP construct was injected into the dorsal muscle of a xenopus embryo ([…]). Half the animals are treated with T3 thyroid hormone at 10 nM.

[5] = system: xenopus stromelysin 3 promoter (several TREs) coupled to luciferase in XTC cells; test: XTC cell transfection with the stromelysin 3/luciferase construct; assay type: cell-based; conditions: T3 10^-8 M in culture medium vs absence of T3 (basal level), FIG. 4
Method: The construct is transferred into XTC cells by complexing the DNA with PEI (22 kDA, at 6 equivalents), the transfected cells are cultured in the presence (10^−8 M) or in the absence (−T3) of T3 thyroid hormone.
The transgenic constructs are tested in XTC xenopus cells in culture.
The XTC cells are obtained from carcasses of xenopus tadpoles just before metamorphosis (Pudney et al., 1973). The cells are cultured at ambient temperature, for up to 20 passages.
The cells are transfected by complexing the DNA with 22 kDa polyethyleneimine (PEI) at 6 equivalents (Ouatas et al., 1998).
The protocol makes it possible to rapidly verify the constructs and thus to verify that said constructs respond correctly to the substances, such as the T3 thyroid hormone when it is injected into the cell culture medium.

SMILES: N[C@@H](Cc1cc(I)c(Oc2ccc(O)c(I)c2)c(I)c1)C(=O)O [T3 thyroid hormone, Tri-iodothyronine]
- expression of the reporter protein (luciferase) [1]: much greater expression
- emission of fluorescence (GFP) [2]: emission of fluorescence throughout the nervous system and in the limb buds
- expression of the reporter protein (luciferase) [3]: much greater expression
- expression of the reporter protein (EGFP) [4]: much greater expression; also recorded: bioluminescence is visible in the cells of the treated animal
- expression of the luciferase reporter protein [5]: greater expression
